Measured values taken from US7192924B2, “Corticotropin releasing factor 2 receptor agonists” (priority 2002, dated 2007).
Where two headings read alike, the source gives them in different places. Peptide text beside a SMILES is read from it.

Assays:
CRF2R = biological target: T1, CRF2R (Homo sapiens, UniProt Q13324); experiment: CRF2R agonist activity (EC50, Emax), called comparative CRF binding; type: cell-based
T1 sequence (Q13324 1-411): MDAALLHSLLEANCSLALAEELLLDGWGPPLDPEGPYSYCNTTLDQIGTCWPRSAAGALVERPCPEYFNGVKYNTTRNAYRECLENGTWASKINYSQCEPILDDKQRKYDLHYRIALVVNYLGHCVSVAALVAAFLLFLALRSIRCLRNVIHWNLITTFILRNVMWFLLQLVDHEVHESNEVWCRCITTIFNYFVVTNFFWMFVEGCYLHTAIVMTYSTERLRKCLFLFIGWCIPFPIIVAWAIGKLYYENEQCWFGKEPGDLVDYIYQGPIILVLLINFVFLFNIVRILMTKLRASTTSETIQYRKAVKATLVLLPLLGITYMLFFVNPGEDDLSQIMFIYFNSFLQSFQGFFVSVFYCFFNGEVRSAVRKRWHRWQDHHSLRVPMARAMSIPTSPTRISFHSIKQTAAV
Summary of the method: (§1)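 Cells expressing only CRF1R or CRF2R (recombinant, or with the other receptor disabled or its signal subtracted) were treated with peptide or vehicle control. Activation was read as cAMP induction in cell lysates or via a cAMP-responsive-element reporter gene.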

CRF1R = biological target: T2, CRF1R (Homo sapiens, UniProt P34998); experiment: CRF1R agonist activity (EC50, Emax), called comparative CRF binding; type: cell-based
T2 sequence (P34998 24-415): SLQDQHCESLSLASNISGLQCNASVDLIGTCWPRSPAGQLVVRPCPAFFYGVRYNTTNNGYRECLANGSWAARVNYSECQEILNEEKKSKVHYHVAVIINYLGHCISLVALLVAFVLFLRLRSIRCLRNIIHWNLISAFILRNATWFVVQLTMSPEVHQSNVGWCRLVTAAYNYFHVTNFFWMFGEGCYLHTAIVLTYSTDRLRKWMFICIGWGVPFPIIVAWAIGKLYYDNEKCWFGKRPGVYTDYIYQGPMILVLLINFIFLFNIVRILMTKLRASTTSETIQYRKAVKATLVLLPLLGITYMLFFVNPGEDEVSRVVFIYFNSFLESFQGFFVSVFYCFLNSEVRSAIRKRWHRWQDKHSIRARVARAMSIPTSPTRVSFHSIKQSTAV
Summary of the method: as §1

| Structure (SMILES) | EC50 (CRF2R) [µM] | EC50 (CRF1R) [µM] | EC50 (CRF2R; read-out: CRF2R EC50) [µM] | EC50 (CRF1R; read-out: CRF1R EC50) [µM] |
| --- | --- | --- | --- | --- |
| CC[C@H](C)[C@H](N)C(=O)N[C@H](C(=O)N[C@@H](CC(C)C)C(=O)N[C@@H](CO)C(=O)N[C@@H](CC(C)C)C(=O)N[C@@H](CC(=O)O)C(=O)N[C@H](C(=O)N1CCC[C@H]1C(=O)N[C@H](C(=O)NCC(=O)N[C@@H](CC(C)C)C(=O)N[C@@H](CC(C)C)C(=O)N[C@@H](CCC(N)=O)C(=O)N[C@H](C(=O)N[C@@H](CC(C)C)C(=O)N[C@H](C(=O)N[C@@H](CCC(=O)O)C(=O)N[C@H](C(=O)N[C@@H](CCC(=O)O)C(=O)N[C@@H](CCCCN)C(=O)N[C@@H](CCC(N)=O)C(=O)N[C@@H](CCC(=O)O)C(=O)N[C@@H](CCCCN)C(=O)N[C@@H](CCC(=O)O)C(=O)N[C@@H](CCCCN)C(=O)N[C@@H](CCC(N)=O)C(=O)N[C@@H](CCC(N)=O)C(=O)N[C@@H](C)C(=O)N[C@@H](C)C(=O)N[C@@H](CC(N)=O)C(=O)N[C@@H](CC(N)=O)C(=O)N[C@@H](CCCNC(=N)N)C(=O)N[C@@H](CC(C)C)C(=O)N[C@@H](CC(C)C)C(=O)N[C@@H](CC(C)C)C(=O)N[C@@H](CC(=O)O)C(=O)N[C@H](C(=O)N[C@H](C(N)=O)[C@@H](C)CC)[C@@H](C)O)[C@@H](C)CC)[C@@H](C)CC)[C@@H](C)CC)[C@@H](C)CC)C(C)C)C(C)C [compound 154] (H-IVLSLDVPIGLLQILIEIEKQEKEKQQAANNRLLLDTI-NH2; N-terminus assumed) | 0.0103 | > 0.1 | – | – |
| CC[C@H](C)[C@H](N)C(=O)N[C@H](C(=O)N[C@@H](CC(C)C)C(=O)N[C@@H](CO)C(=O)N[C@@H](CC(C)C)C(=O)N[C@@H](CC(=O)O)C(=O)N[C@H](C(=O)N1CCC[C@H]1C(=O)N[C@H](C(=O)NCC(=O)N[C@@H](CC(C)C)C(=O)N[C@@H](CC(C)C)C(=O)N[C@@H](CCC(N)=O)C(=O)N[C@H](C(=O)N[C@@H](CC(C)C)C(=O)N[C@@H](CC(C)C)C(=O)N[C@@H](CCC(=O)O)C(=O)N[C@@H](CCSC)C(=O)N[C@H](C(=O)N[C@@H](CCCCN)C(=O)N[C@@H](C)C(=O)N[C@@H](CC(=O)O)C(=O)N[C@@H](CCC(N)=O)C(=O)N[C@@H](CC(C)C)C(=O)N[C@@H](C)C(=O)N[C@@H](CCC(N)=O)C(=O)N[C@@H](CCC(N)=O)C(=O)N[C@@H](C)C(=O)N[C@@H](Cc1c[nH]cn1)C(=O)N[C@@H](CO)C(=O)N[C@@H](CC(N)=O)C(=O)N[C@@H](CCCNC(=N)N)C(=O)N[C@@H](CCCCN)C(=O)N[C@@H](CC(C)C)C(=O)N[C@@H](CC(C)C)C(=O)N[C@@H](CC(=O)O)C(=O)N[C@H](C(=O)N[C@@H](C)C(N)=O)[C@@H](C)CC)[C@@H](C)O)[C@@H](C)CC)[C@@H](C)CC)C(C)C)C(C)C [compound 155] (H-IVLSLDVPIGLLQILLEMTKADQLAQQAHSNRKLLDIA-NH2; N-terminus assumed) | – | – | 0.0206 | 0.0406 |
| CC[C@H](C)[C@H](N)C(=O)N[C@H](C(=O)N[C@@H](CC(C)C)C(=O)N[C@@H](CO)C(=O)N[C@@H](CC(C)C)C(=O)N[C@@H](CC(=O)O)C(=O)N[C@H](C(=O)N1CCC[C@H]1C(=O)N[C@H](C(=O)NCC(=O)N[C@@H](CC(C)C)C(=O)N[C@@H](CC(C)C)C(=O)N[C@@H](CCC(N)=O)C(=O)N[C@H](C(=O)N[C@@H](CC(C)C)C(=O)N[C@@H](CC(C)C)C(=O)N[C@@H](CCC(=O)O)C(=O)N[C@@H](CCC(N)=O)C(=O)N[C@H](C(=O)N[C@@H](CCCCN)C(=O)N[C@@H](C)C(=O)N[C@@H](CC(=O)O)C(=O)N[C@@H](CCC(N)=O)C(=O)N[C@@H](CC(C)C)C(=O)N[C@@H](C)C(=O)N[C@@H](CCC(N)=O)C(=O)N[C@@H](CCC(N)=O)C(=O)N[C@@H](C)C(=O)N[C@@H](Cc1c[nH]cn1)C(=O)N[C@@H](CO)C(=O)N[C@@H](CC(N)=O)C(=O)N[C@@H](CCCNC(=N)N)C(=O)N[C@@H](CCCCN)C(=O)N[C@@H](CC(C)C)C(=O)N[C@@H](CC(C)C)C(=O)N[C@@H](CC(=O)O)C(=O)N[C@H](C(=O)N[C@@H](C)C(N)=O)[C@@H](C)CC)[C@@H](C)O)[C@@H](C)CC)[C@@H](C)CC)C(C)C)C(C)C [compound 159] (H-IVLSLDVPIGLLQILLEQTKADQLAQQAHSNRKLLDIA-NH2; N-terminus assumed) | – | – | 0.0908 | > 0.1 |
| CC[C@H](C)[C@H](N)C(=O)N[C@H](C(=O)N[C@@H](CC(C)C)C(=O)N[C@@H](CO)C(=O)N[C@@H](CC(C)C)C(=O)N[C@@H](CC(=O)O)C(=O)N[C@H](C(=O)N1CCC[C@H]1C(=O)N[C@H](C(=O)NCC(=O)N[C@@H](CC(C)C)C(=O)N[C@@H](CC(C)C)C(=O)N[C@@H](CCC(N)=O)C(=O)N[C@H](C(=O)N[C@@H](CC(C)C)C(=O)N[C@@H](CC(C)C)C(=O)N[C@@H](CCC(=O)O)C(=O)N[C@@H](CC(C)C)C(=O)N[C@@H](C)C(=O)N[C@@H](CCCNC(=N)N)C(=O)N[C@H](C(=O)N[C@@H](CCC(N)=O)C(=O)N[C@@H](CO)C(=O)N[C@@H](CCC(N)=O)C(=O)N[C@@H](CCCNC(=N)N)C(=O)N[C@@H](CCC(=O)O)C(=O)N[C@@H](CCCNC(=N)N)C(=O)N[C@@H](C)C(=O)N[C@@H](CCC(=O)O)C(=O)N[C@@H](CCC(N)=O)C(=O)N[C@@H](CC(N)=O)C(=O)N[C@@H](CCCNC(=N)N)C(=O)N[C@H](C(=O)N[C@H](C(=O)N[C@@H](Cc1ccccc1)C(=O)N[C@@H](CC(=O)O)C(=O)N[C@@H](CO)C(=O)N[C@H](C(N)=O)C(C)C)[C@@H](C)CC)[C@@H](C)CC)[C@@H](C)O)[C@@H](C)O)[C@@H](C)CC)C(C)C)C(C)C [compound 160] (H-IVLSLDVPIGLLQTLLELARTQSQRERAEQNRIIFDSV-NH2; N-terminus assumed) | – | – | 0.00915 | > 0.1 |
| CC[C@H](C)[C@H](N)C(=O)N[C@H](C(=O)N[C@@H](CC(C)C)C(=O)N[C@@H](CO)C(=O)N[C@@H](CC(C)C)C(=O)N[C@@H](CC(=O)O)C(=O)N[C@H](C(=O)N1CCC[C@H]1C(=O)N[C@H](C(=O)NCC(=O)N[C@@H](CC(C)C)C(=O)N[C@@H](CC(C)C)C(=O)N[C@@H](CCC(N)=O)C(=O)N[C@H](C(=O)N[C@@H](CC(C)C)C(=O)N[C@@H](CC(C)C)C(=O)N[C@@H](CCC(=O)O)C(=O)N[C@@H](CCSC)C(=O)N[C@@H](C)C(=O)N[C@@H](CCCNC(=N)N)C(=O)N[C@@H](C)C(=O)N[C@@H](CCC(=O)O)C(=O)N[C@@H](CCC(N)=O)C(=O)N[C@@H](CC(C)C)C(=O)N[C@@H](C)C(=O)N[C@@H](CCC(N)=O)C(=O)N[C@@H](CCC(N)=O)C(=O)N[C@@H](C)C(=O)N[C@@H](Cc1c[nH]cn1)C(=O)N[C@@H](CO)C(=O)N[C@@H](CC(N)=O)C(=O)N[C@@H](CCCNC(=N)N)C(=O)N[C@@H](CCCCN)C(=O)N[C@@H](CC(C)C)C(=O)N[C@@H](CCSC)C(=O)N[C@@H](CCC(=O)O)C(=O)N[C@H](C(=O)N[C@H](C(N)=O)[C@@H](C)CC)[C@@H](C)CC)[C@@H](C)CC)[C@@H](C)CC)C(C)C)C(C)C [compound 164] (H-IVLSLDVPIGLLQILLEMARAEQLAQQAHSNRKLMEII-NH2; N-terminus assumed) | – | – | 0.00224 | > 0.1 |
